Data: publication PMC3814719, “Structure of a bacterial putative acetyltransferase defines the fold of the human O-GlcNAcase C-terminal domain” (Open Biology, 2013)

Target: T1, OgpAT (Oceanicola granulosus, UniProt Q2CEE2)
T1 construct: gene OG2516_04134; full-length OgpAT, expressed as GST fusion from pGEX-6P-1 in E. coli BL21(DE3) pLysS, GST cut off with PreScission protease; 206 residues in crystal; monomer; biotinylated for SPR; gene immediately downstream of OgOGA
Assay: surface plasmon resonance, biotinylated protein on streptavidin chip, […] equilibrium fit
Assay type: binding
Conditions: read-out: OgpAT, wt

T1 sequence (Q2CEE2 whole entry, the tested form may be a part): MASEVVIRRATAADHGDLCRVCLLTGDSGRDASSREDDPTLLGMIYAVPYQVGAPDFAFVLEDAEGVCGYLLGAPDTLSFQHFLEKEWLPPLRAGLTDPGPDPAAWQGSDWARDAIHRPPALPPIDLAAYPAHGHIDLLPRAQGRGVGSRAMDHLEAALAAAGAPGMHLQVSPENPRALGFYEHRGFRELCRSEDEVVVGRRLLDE

Compound: CC(=O)SCCNC(=O)CCNC(=O)[C@H](O)C(C)(C)COP(=O)(O)OP(=O)(O)OC[C@H]1O[C@@H](n2cnc3c(N)ncnc32)[C@H](O)[C@@H]1OP(=O)(O)O [AcCoA]
- Kd: 8.3 µM
